{
  "source": "patent US6656497B2",
  "about": "“Liposomal vector for active-principle” (Lipogel, priority 1997, dated 2003)",
  "key": {"[1]": {"assay": "Passage of orally administered free calcitonin across the intestinal barrier", "format": "in vivo", "conditions": "330 IU administered orally", "procedure": "It is explained by the fact that during a massive administration of peptide such as calcitonin, a small percentage crosses the intestinal barrier (1%) without being denatured. In this case, 330 IU were administered, which corresponds to a lymphatic passage of 3.3 IU (passage from the intestinal lumen into the plasma, via the lymphatic canal pathway). However, the IV-route effect of calcitonin starts at 0.9 IU. It is thus normal to observe this effect of free calcitonin. The hypocalcaemia observed after oral administration of calcitonin decreases over time to return to the normal level after 90 min."}, "[2]": {"conditions": "massive oral administration of peptide; cited from earlier work"}},
  "data": [
    {"smiles": "CC(C)C[C@H](NC(=O)[C@H](CCCCN)NC(=O)CNC(=O)[C@H](CC(C)C)NC(=O)[C@@H](NC(=O)[C@@H]1CSSC[C@H](N)C(=O)N[C@@H](CO)C(=O)N[C@@H](CC(N)=O)C(=O)N[C@@H](CC(C)C)C(=O)N[C@@H](CO)C(=O)N[C@@H]([C@@H](C)O)C(=O)N1)C(C)C)C(=O)N[C@@H](CO)C(=O)N[C@@H](CCC(N)=O)C(=O)N[C@@H](CCC(=O)O)C(=O)N[C@@H](CC(C)C)C(=O)N[C@@H](Cc1c[nH]cn1)C(=O)N[C@@H](CCCCN)C(=O)N[C@@H](CC(C)C)C(=O)N[C@@H](CCC(N)=O)C(=O)N[C@H](C(=O)N[C@@H](Cc1ccc(O)cc1)C(=O)N1CCC[C@H]1C(=O)N[C@@H](CCCNC(=N)N)C(=O)N[C@H](C(=O)N[C@@H](CC(N)=O)C(=O)N[C@H](C(=O)NCC(=O)N[C@@H](CO)C(=O)NCC(=O)N[C@H](C(=O)N1CCC[C@H]1C(N)=O)[C@@H](C)O)[C@@H](C)O)[C@@H](C)O)[C@@H](C)O", "note": "[free calcitonin, salmon calcitonin]", "values": [
      {"measurement": "lymphatic passage (intestinal lumen into plasma via lymphatic canal pathway)", "setting": "[1]", "value": 3.3, "unit": "IU"},
      {"measurement": "percentage crossing the intestinal barrier without being denatured", "setting": "[2]", "value": 1, "unit": "%"}
    ]}
  ]
}
